Read-outs that look alike come from different tables or passages of the source.
Experiments:
Assay type in all cases: physicochemical
[1] = Approximate solubility of the coupling molecule in spray drying solvents; settings: organic solvent or mixture, thermodynamic from solid
Description: In this embodiment, the solvent is firstly screened and determined: the solvent comprises one or a combination of more of methanol, ethanol, acetone, ethyl acetate, tetrahydrofuran and dichloromethane. About 10 mg of rifamycin-nitroimidazole coupling molecules are weighed into a 1.5 mL liquid phase bottle, and appropriate volumes of different solvents are added respectively to observe and judge whether the coupling molecule is completely dissolved and judge approximate solubility of the coupling molecule.

[2] = Dissolution of binary solid dispersion film in simulated gastric fluid of pH 1.2; settings: simulated gastric fluid pH 1.2, 25° C.
Description: (§1) Preparation of binary solid dispersion (ASD for short): About 25 mg of rifaomycin-nitroimidazole coupling molecules and about 25 mg of carrier excipient are weighed, and placed into the same 40 mL glass bottle. The open 40 mL glass bottle is covered with perforated aluminum-foil paper to prevent cross contamination and placed into a 35° C. vacuum drying oven for rapid volatilization. After 40 hours of vacuum and full drying, the binary dispersion forms a purple film on the bottom of the bottle to obtain a binary solid dispersion film.
(§2) The prepared binary solid dispersion film is subjected to dissolution experiments: In the 40 mL glass bottle containing solid dispersion films, 0.5 mL of simulated gastric fluid of pH 1.2 and […] of acetate buffer of pH 4.5 are respectively taken as dissolution media (25° C.) (the target concentration is 50 mg ml), to seal the glass bottle and complete the vortex processing for 5 seconds; 100 μL of liquid is taken as an initial sampling point (0 minute) and then the glass bottle is shaken by a rocking bed; 100 μL of solution is taken into centrifugal tubes respectively after 10 minutes, 30 minutes, and 60 minutes, to perform the centrifugation at a rotational speed of 14000 rpm for 5 minutes; and the supernatant is taken into a small liquid phase bottle and is diluted with the acetonitrile to a suitable multiple, and high-performance liquid chromatograph is taken into the glass bottle, to record a chromatogram map and calculate the concentration according to the peak area by an external standard method.

[3] = Dissolution of binary solid dispersion film in acetate buffer of pH 4.5; settings: for Drug Concentration: acetate buffer pH 4.5, 25° C.
Description: as §1, §2

[4] = Two-hour solubility of API in functional excipient solution; settings: for Two-hour Dissolution Rate: 37° C.; for increase of two-hour dissolution rate compared to API powder control: pH 4.5 system
Description: In order to further increase the dissolution performance of the rifamycin-nitroimidazole coupling molecule, sodium dodecyl sulfate, meglumine, VE-TPGS or Tween 80 is respectively added in the simulated gastric fluid system of pH=1.2 or the acetate buffer system of pH=4.5, to prepare the dissolution medium containing 3 mg/mL of functional excipient. About 100 mg (or 20 mg) of rifamycin-nitroimidazole coupling molecules are weighed and put into a 1.5 ml high-performance liquid phase bottle, 1 ml of simulated gastric fluid of pH 1.2 (or acetate buffer of pH 4.5) containing functional excipient is added, and the rifamycin-nitroimidazole coupling molecules are put into a constant temperature mixing instrument at 37° C., the rotation speed is 700 rpm, and after 120 minutes, 500 μl of liquid is taken into a centrifuge tube and centrifuged at 14,000 rpm for 5 min. The supernatant liquid is centrifuged again in the same condition, and the supernatant liquid after twice centrifugation is taken into the liquid phase bottle, and diluted to a proper amount of times with acetonitrile as the solution to be tested, a high performance liquid chromatograph is injected to record a chromatogram, and the concentration is calculated by a peak area using an external standard method.

[5] = Dissolution of spray-dried solid dispersion powder in acetate buffer of pH 4.5 (target 4 mg/mL); settings: acetate buffer pH 4.5, 37° C.
Description: About 344 mg of prepared solid dispersions are taken and poured into a 40 mL glass bottle; 20 mL of acetate buffer of pH 4.5 (preheated to 37° C.) is used as the dissolution medium (the target concentration of the rifaomycin-nitroimidazole coupling molecule is 4 mg/mL); the glass bottle is sealed; and the above materials are whirled for 5 seconds and placed on a heated magnetic stirrer at 37° C. after a stir bar is inserted. The rotational speed is 300 rpm. After 10 min, 20 min, 40 min, 60 min, 90 min, 120 min and 180 min, 500 μL of the liquid is taken into the centrifuge tube and centrifuged at 14000 rpm for 3 min. The supernatant liquid is taken into the liquid phase bottle and diluted to 10 times with acetonitrile as the solution to be tested, the high performance liquid chromatography is injected and the chromatogram is recorded, and the concentration is calculated by the peak area using the external standard method.

[6] = Two-hour solubility of API in functional excipient solution
[7] = acetate buffer pH 4.5, Meglumine
[8] = acetate buffer pH 4.5, no functional excipient
[9] = simulated gastric fluid pH 1.2, SLS
[10] = simulated gastric fluid pH 1.2, Tween80
[11] = simulated gastric fluid pH 1.2, VE-TPGS
[12] = simulated gastric fluid pH 1.2, no functional excipient

solubility ([1]; acetone, read-out: Approximate Solubility): > 300 mg/mL
solubility ([1]; dichloromethane, read-out: Approximate Solubility): > 300 mg/mL
solubility ([1]; ethanol, read-out: Approximate Solubility): 167 to 200 mg/mL
solubility ([1]; ethyl acetate, read-out: Approximate Solubility): 167 to 200 mg/mL
solubility ([1]; methanol, read-out: Approximate Solubility): > 300 mg/mL
solubility ([1]; various common spray drying solvents, read-out: Solubility): > 100 mg/mL
solubility ([1]; tetrahydrofuran, read-out: Approximate Solubility): > 200 mg/mL
pH ([2]; dissolution medium): 2.0
Phenomenon [2]: Clear
Drug Concentration ([2]; 0 min): 10000 µg/mL
Drug Concentration ([2]; 10 min): 46400 µg/mL
Drug Concentration ([2]; 30 min): 54700 µg/mL
Drug Concentration ([2]; 60 min): 53500 µg/mL
Drug Concentration ([3]; 0 min): 10 µg/mL
Drug Concentration ([3]; 10 min): 290 µg/mL
Drug Concentration ([3]; 30 min): 340 µg/mL
Drug Concentration ([3]; 60 min): 370 µg/mL
pH ([3]; dissolution medium, acetate buffer pH 4.5): 4.5
Two-hour Dissolution Rate ([4]; 20 mg API + 1 mL acetate buffer pH 4.5, Meglumine 3 mg/mL): 0.10 mg/mL
Two-hour Dissolution Rate ([4]; 20 mg API + 1 mL acetate buffer pH 4.5, SLS 3 mg/mL): 0.06 mg/mL
Two-hour Dissolution Rate ([4]; 20 mg API + 1 mL acetate buffer pH 4.5, Tween80 3 mg/mL): 0.61 mg/mL
Two-hour Dissolution Rate ([4]; 20 mg API + 1 mL acetate buffer pH 4.5, VE-TPGS 3 mg/mL): 0.84 mg/mL
Two-hour Dissolution Rate ([4]; 20 mg API + 1 mL acetate buffer pH 4.5, no functional excipient): 0.15 mg/mL
Two-hour Dissolution Rate ([4]; 100 mg API + 1 mL simulated gastric fluid pH 1.2, SLS 3 mg/mL): 6.7 mg/mL
Two-hour Dissolution Rate ([4]; 100 mg API + 1 mL simulated gastric fluid pH 1.2, Tween80 3 mg/mL): 11.7 mg/mL
Two-hour Dissolution Rate ([4]; 100 mg API + 1 mL simulated gastric fluid pH 1.2, VE-TPGS 3 mg/mL): 11.5 mg/mL
Final pH [4, 7]: 4.91
Physical Appearance [4, 7]: Suspension
Final pH ([4]; acetate buffer pH 4.5, SLS): 4.65
Physical Appearance ([4]; acetate buffer pH 4.5, SLS): Suspension
Final pH ([4]; acetate buffer pH 4.5, Tween80): 4.46
Physical Appearance ([4]; acetate buffer pH 4.5, Tween80): Suspension
Final pH ([4]; acetate buffer pH 4.5, VE-TPGS): 4.45
Physical Appearance ([4]; acetate buffer pH 4.5, VE-TPGS): Suspension
Final pH [4, 8]: 4.45
Physical Appearance [4, 8]: Suspension
increase of two-hour dissolution rate compared to API powder control ([4]; Tween-80): 4 times
increase of two-hour dissolution rate compared to API powder control ([4]; VE-TPGS): 6 times
Final pH [4, 9]: 2.72
Physical Appearance [4, 9]: Suspension
Final pH [4, 10]: 2.60
Physical Appearance [4, 10]: Suspension
Final pH [4, 11]: 2.60
Physical Appearance [4, 11]: Suspension
Physical Appearance [4, 12]: Suspension
Phenomenon [5]: Inhomogeneous
Drug Concentration ([5]; 10 Min): 210 µg/mL
Drug Concentration ([5]; 20 Min): 170 µg/mL
Drug Concentration ([5]; 40 Min): 190 µg/mL
Drug Concentration ([5]; 60 Min): 180 µg/mL
Drug Concentration ([5]; 90 Min): 180 µg/mL
Drug Concentration ([5]; 120 Min): 180 µg/mL
Drug Concentration ([5]; 180 Min): 160 µg/mL
pH ([5]; dissolution medium): 4.47
Two-hour Dissolution Rate ([6]; 100 mg API + 1 mL simulated gastric fluid pH 1.2, no functional excipient, 37° C.): 9.8 mg/mL
Final pH [6, 12]: 2.5
Compound: CO[C@H]1/C=C/O[C@@]2(C)Oc3c(C)c(O)c4c(c3C2=O)C2=NC3(CCN(CCn5c([N+](=O)[O-])cnc5C)CC3)NC2=C(NC(=O)/C(C)=C\C=C\[C@H](C)[C@H](O)[C@@H](C)[C@@H](O)[C@@H](C)[C@H](OC(C)=O)[C@@H]1C)C4=O [API]
Phenomenon ([3]; acetate buffer pH 4.5): Clear solution, incomplete dissolved film

Source: US20210338645A1, “SOLID DISPERSION OF RIFAMYCIN-NITROIMIDAZOLE COUPLING MOLECULE AND APPLICATION THEREOF” (TenNor Therapeutics Limited, priority 2018, published 2021)
